Measurements taken from patent US10517889B2, “Modulators of SMAD7 expression” (Ionis Pharmaceuticals, Inc., priority 2017, dated 2019).
Where “and” joins values, the source holds several entries; their conditions need not be identical. Identical values can stand only once.

Key:
human SMAD7 mRNA [1] = assay: Dose-dependent inhibition of human SMAD7 mRNA expression in Hep3B cells (Example 3, Study 1 and 2); type: cell-based; settings: electroporation; for % inhibition of SMAD7 mRNA expression: approximately 16 hours; for IC50: Study 2 (740-20000 nM)
Method in brief: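 Hep3B cells, 20,000 per well, electroporated with antisense oligonucleotide at 0.31, 1.25, 5.00 or 20.00 μM (first series) or 0.74, 2.22, 6.67 or 20.00 μM (second series). After ~16 h, SMAD7 mRNA measured by RT-qPCR (RTS5062), normalised to RIBOGREEN total RNA. Percent inhibition vs untreated cells; IC50 derived.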

[2] = Plasma chemistry markers after subcutaneous administration in CD-1 mice (Example 6); type: in vivo; settings: CD-1 mice plasma at day 46; 50 mg/kg subcutaneously twice a week for 7 weeks
Experimental: CD-1® mice (Charles River, Mass.) are a multipurpose mice model, frequently utilized for safety and efficacy testing. The mice were treated with Ionis human SMAD7 antisense oligonucleotides selected from studies described above and evaluated.
Groups of 8-9 week old male CD-1 mice were injected subcutaneously twice a week for 7 weeks with 50 mg/kg of Ionis oligonucleotides (100 mg/kg/week dose). Each group contained 4 mice. One group of male CD-1 mice was injected subcutaneously twice a week for 7 weeks with PBS. […]

human SMAD7 mRNA [3] = assay: Dose-dependent inhibition of human SMAD7 mRNA expression in A431 cells, oligonucleotide added without transfection (Example 5, Study 1); type: cell-based; settings: approximately 48 hours; for IC50: SMAD7 mRNA
Method in brief: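 A431 cells dosed with antisense oligonucleotide at 0.08–20.00 μM by free uptake immediately after plating, 48 h at 37° C. SMAD7 mRNA quantified by qRT-PCR (primer probe set RTS5062), normalised to RiboGreen total RNA. Values are % inhibition versus untreated cells.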

murine Smad7 mRNA = assay: Dose-dependent inhibition of murine Smad7 mRNA in bEND cells, electroporation (Example 5, Study 2); type: cell-based, mouse; settings: electroporation; for % inhibition of SMAD7 mRNA expression: approximately 16 hours
Method in brief: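 Mouse bEND cells electroporated with oligonucleotide at several doses and treated for approximately 16 hours. Smad7 mRNA quantified by real-time RT-PCR (primer probe set RTS1114), normalised to total RNA by RiboGreen. Reported as percent inhibition relative to untreated cells.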

[4] = Pharmacokinetics: oligonucleotide concentration in the plasma on day 28 after oral gavage in beagle dogs (Example 12); type: in vivo; settings: 200 mg oral gavage
Experimental: There were 4 animals per group.
Plasma concentrations of Ionis oligonucleotides were also measured on Day 28 at various time points.

[5] = Organ weights after oral gavage in beagle dogs (Example 12); settings: 200 mg oral gavage for 4 weeks, day 30
Experimental: (§1) Groups of 24-25 week old male beagle dogs were administered 200 mg Ionis human SMAD7 oligonucleotide by oral gavage once a week for 4 weeks. There were 4 animals per group. A control group of dogs received oral administration of distilled water. Dogs were sacrificed on day 30 approximately 48 hours after the final dose and organs and plasma were harvested for further analysis.

[6] = Plasma chemistry markers after oral gavage in beagle dogs (Example 12); settings: 200 mg oral gavage for 4 weeks, plasma at day 30
Experimental: The study was conducted to evaluate the tolerability and pharmacodynamics of select human SMAD7 antisense oligonucleotides in beagle dogs following 4 weeks of treatment. The dogs were administered oligonucleotides by oral gavage.
as §1
To evaluate the effect of Ionis SMAD7 oligonucleotides on liver and kidney function, approximately 1.5 mL of blood samples were collected and put into tubes without anticoagulant for serum separation. The tubes were kept at room temperature for a minimum of 90 min and then centrifuged (approximately 3,000 rpm for 10 min) to obtain serum. Plasma levels of transaminases, albumin, bilirubin, and BUN were measured using an automated clinical chemistry analyzer (Toshiba 200FR Neo chemistry analyzer, Toshiba Co., Japan).

[7] = 740 nM, Study 2, relative to untreated control cells

Substance	% inhibition of SMAD7 mRNA expression (human SMAD7 mRNA [1]; [7])	% inhibition of SMAD7 mRNA expression (human SMAD7 mRNA [1]; 2220 nM, Study 2)	% inhibition of SMAD7 mRNA expression (human SMAD7 mRNA [1]; 6670.0 nM, Study 2)	% inhibition of SMAD7 mRNA expression (human SMAD7 mRNA [1]; 20000.0 nM, Study 2)	IC50 (human SMAD7 mRNA [1])	ALT [2]	AST [2]	Albumin [2]	BUN [2]	% inhibition of SMAD7 mRNA expression (human SMAD7 mRNA [3]; 0.08 μM)	% inhibition of SMAD7 mRNA expression (human SMAD7 mRNA [3]; 0.25 μM)	% inhibition of SMAD7 mRNA expression (human SMAD7 mRNA [3]; 0.74 μM)	% inhibition of SMAD7 mRNA expression (human SMAD7 mRNA [3]; 2.22 μM)	% inhibition of SMAD7 mRNA expression (human SMAD7 mRNA [3]; 6.67 μM)	% inhibition of SMAD7 mRNA expression (human SMAD7 mRNA [3]; 20.00 μM)	IC50 (human SMAD7 mRNA [3])	% inhibition of SMAD7 mRNA expression (murine Smad7 mRNA; 0.25 μM)	% inhibition of SMAD7 mRNA expression (murine Smad7 mRNA; 0.74 μM)	% inhibition of SMAD7 mRNA expression (murine Smad7 mRNA; 2.22 μM)	% inhibition of SMAD7 mRNA expression (murine Smad7 mRNA; 6.67 μM)	further results
829994 (GGAGGCAGGGCCGCGA; 3-10-3 cEt gapmer, further chemistry not given here) [compound 829994]	25%	54%	69%	80%	1 µM	65 IU/L	90 IU/L	2.9 g/dL	25 mg/dL												
830121 (AGAATCAAGCCCTGGC; 3-10-3 cEt gapmer, further chemistry not given here) [compound 830121]	37% and 54%	48% and 63%	69% and 79%	85% and 86%	< 0.7 µM	198 IU/L	151 IU/L	1.9 g/dL	21 mg/dL	11%	18%	27%	21%	35%	44%	> 20 µM	0%	6%	12%	17%	% inhibition of SMAD7 mRNA expression (murine Smad7 mRNA; 20.00 μM): 20%; IC50 (murine Smad7 mRNA): > 20 µM
798781 (CGTAAGATTCACAGCA; 3-10-3 cEt gapmer, further chemistry not given here) [compound 798781]	46%	64%	81%	87%	2 µM	40 IU/L	66 IU/L	2.2 g/dL	26 mg/dL	23%	34%	41%	41%	57%	62%	3.6 µM	0%	0%	20%	33%	% inhibition of SMAD7 mRNA expression (murine Smad7 mRNA; 20.00 μM): 51%; IC50 (murine Smad7 mRNA): 19.8 µM; Oligonucleotide concentration in the plasma on day 28 ([4]; 2 hr): 18.7 ng/mL; Oligonucleotide concentration in the plasma on day 28 ([4]; 4 hr): 5.4 ng/mL; Oligonucleotide concentration in the plasma on day 28 ([4]; 8 hr): 3.6 ng/mL; Oligonucleotide concentration in the plasma on day 28 ([4]; 24 hr): 0.4 ng/mL; Kidney weight (% of control) [5]: 86 % of control; Liver weight (% of control) [5]: 91 % of control; Spleen weight (% of control) [5]: 102 % of control; ALT (% of control) [6]: 115 % of control; AST (% of control) [6]: 114 % of control; Albumin (% of control) [6]: 101 % of control; BUN (% of control) [6]: 104 % of control; Bilirubin (% of control) [6]: 114 % of control
790615 (CCAATGAGAATGCTTC; 3-10-3 cEt gapmer, further chemistry not given here) [compound 790615]						65 IU/L	97 IU/L	2.2 g/dL	22 mg/dL	14%	43%	55%	63%	70%	75%	0.7 µM	7%	18%	37%	47%	% inhibition of SMAD7 mRNA expression (murine Smad7 mRNA; 20.00 μM): 64%; IC50 (murine Smad7 mRNA): 7.3 µM; Oligonucleotide concentration in the plasma on day 28 ([4]; 2 hr): 16.7 ng/mL; Oligonucleotide concentration in the plasma on day 28 ([4]; 4 hr): 4.8 ng/mL; Oligonucleotide concentration in the plasma on day 28 ([4]; 8 hr): 0.5 ng/mL; Oligonucleotide concentration in the plasma on day 28 ([4]; 24 hr): 0.0 ng/mL; Kidney weight (% of control) [5]: 94 % of control; Liver weight (% of control) [5]: 85 % of control; Spleen weight (% of control) [5]: 106 % of control; ALT (% of control) [6]: 118 % of control; AST (% of control) [6]: 147 % of control; Albumin (% of control) [6]: 98 % of control; BUN (% of control) [6]: 108 % of control; Bilirubin (% of control) [6]: 102 % of control
830037 (antisense CTATTGGCTGATCTGG; 3-10-3 cEt gapmer, further chemistry not given here) [compound 830037]	30%	56%	70%	87%	3 µM					10%	31%	29%	42%	61%	67%	3.4 µM	0%	6%	1%	0%	% inhibition of SMAD7 mRNA expression (murine Smad7 mRNA; 20.00 μM): 0%; IC50 (murine Smad7 mRNA): > 20 µM
830025 (antisense TTTGTAAATCGAAAGC; 3-10-3 cEt gapmer, further chemistry not given here) [compound 830025]	42%	58%	72%	88%	< 0.7 µM	208 IU/L	263 IU/L	2.5 g/dL	25 mg/dL	16%	30%	22%	41%	54%	67%	4.7 µM	15%	27%	51%	67%	% inhibition of SMAD7 mRNA expression (murine Smad7 mRNA; 20.00 μM): 77%; IC50 (murine Smad7 mRNA): 2.7 µM; Oligonucleotide concentration in the plasma on day 28 ([4]; 2 hr): 13.6 ng/mL; Oligonucleotide concentration in the plasma on day 28 ([4]; 4 hr): 3.8 ng/mL; Oligonucleotide concentration in the plasma on day 28 ([4]; 8 hr): 1.7 ng/mL; Oligonucleotide concentration in the plasma on day 28 ([4]; 24 hr): 0.0 ng/mL; Kidney weight (% of control) [5]: 99 % of control; Liver weight (% of control) [5]: 79 % of control; Spleen weight (% of control) [5]: 87 % of control; ALT (% of control) [6]: 117 % of control; AST (% of control) [6]: 106 % of control; Albumin (% of control) [6]: 96 % of control; BUN (% of control) [6]: 93 % of control; Bilirubin (% of control) [6]: 96 % of control
